Experimental findings from US11597724B2, “Herbicidally active 3-phenylisoxazoline-5-carboxamides of tetrahydro and dihydrofuran carboxylic acids and esters” (Bayer Aktiengesellschaft, priority 2017, dated 2023) are described below.

Holding throughout (format): in vivo
One assay has as its system Echinochloa crus-galli. The assay is described as follows: Post-emergence herbicidal activity against ECHCG. The note with it: dosage 320 g/ha, rated about 3 weeks after treatment; for pest or weed control at 320 g/ha: Echinochloa crus-galli, 504 h. Put shortly: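 Greenhouse pot plants sprayed post-emergence at one-leaf stage (2-3 weeks after sowing) with WP or EC formulations, 0.5% additive, 600 l/ha water. Visual rating about 3 weeks later versus untreated controls: 100% = plants dead, 0% = like control.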

For another assay, the system named is Setaria viridis. The assay can be described thus: Pre-emergence herbicidal activity against SETVI. Conditions: dosage 80 g/ha; for pest or weed control at 80 g/ha: Setaria viridis, 504 h. The text has this:
(§1) 1. Pre-Emergence Herbicidal Action and Crop Plant Compatibility Seeds of monocotyledonous and dicotyledonous weed plants and crop plants are placed in plastic or wood fiber pots and covered with soil. The compounds of the invention, formulated in the form of wettable powders (WP) or as emulsion concentrates (EC), are then applied onto the surface of the covering soil as aqueous suspension or emulsion with addition of 0.5% additive at a water application rate of 600 l/ha (converted). After the treatment, the pots are placed in a greenhouse and kept under good growth conditions for the trial plants. After about 3 weeks, the effect of the preparations is scored visually in comparison with untreated controls as percentages. For example, 100% activity=the plants have died, 0% activity=like control plants. POLCO: Polygonum convolvulus SETVI: Setaria viridis

The next assay deals with Avena fatua. The assay can be described thus: Pre-emergence herbicidal activity against AVEFA. The note with it: dosage 80 g/ha; for pest or weed control at 80 g/ha: Avena fatua, 504 h, read-out: Pre-emergence herbicidal activity against AVEVA in % (AVEFA).
Excerpt: as §1, with “AMARE: Amaranthus retroflexus AVEFA: Avena fatua” for “POLCO: Polygonum convolvulus SETVI: Setaria viridis”

The nature of assay [1]: Post-emergence treatment, summary over harmful plants. Conditions: 504 h, application rate of 0.32 kg of active substance or less per hectare, read-out: herbicidal action, post-emergence treatment (very good herbicidal activity). The method, boiled down: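 Greenhouse-grown weeds and crops were sprayed at the one-leaf stage (2–3 weeks post-sowing) with WP or EC formulations plus 0.5% additive at 600 l/ha water. About 3 weeks later, activity was visually rated against untreated controls (100% = dead plants, 0% = like control).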

The subject of another assay is Veronica persica. The assay can be described thus: Post-emergence herbicidal activity against VERPE. Conditions: dosage 320 g/ha; for pest or weed control at 320 g/ha: Veronica persica, 504 h. The method, boiled down:
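Greenhouse plants treated at one-leaf stage, 2–3 weeks after sowing, by spraying WP or EC formulations with 0.5% additive at 600 l/ha water. Visual rating about 3 weeks later versus untreated controls (100% = plants dead, 0% = like controls).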

A further assay deals with Polygonum convolvulus. The assay is described as follows: Post-emergence herbicidal activity against POLCO. Conditions: dosage 320 g/ha, rated about 3 weeks after treatment; for pest or weed control at 320 g/ha: Fallopia convolvulus, 504 h. The method, boiled down:
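Greenhouse weeds in sandy loam were sprayed at the one-leaf stage, 2–3 weeks after sowing, with WP or EC formulations plus 0.5% additive at 600 l/ha water. About 3 weeks later, damage was rated visually against untreated controls, where 100% means plants dead and 0% means like control.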

The structures appear in SMILES notation.

As for `C=C[C@]1(C(=O)N[C@H]2CO[C@@H](C(=O)OC(C)(C)C)C2)CC(c2cc(F)cc(F)c2)=NO1` (mixture of isomers) [I-38, tert-butyl cis-4-[[(5S)-3-(3,5-difluorophenyl)-5-vinyl-4H-isoxazole-5-carbonyl]amino]tetrahydrofuran-2-carboxylate], the figures for the pest or weed control at 320 g/ha (with Echinochloa crus-galli; in assay [1]; in the assay on Veronica persica) were 90%, 80 to 100% and 80%, respectively. Besides, the values for the pest or weed control at 80 g/ha with Setaria viridis and in the assay with Avena fatua were 100% and 90%, respectively.

For the compound `C=C[C@]1(C(=O)NC2COCC2C(=O)OC)CC(c2cc(F)cc(F)c2)=NO1` (stereo partly drawn) [I-26, methyl 4-[[(5S)-3-(3,5-difluorophenyl)-5-vinyl-4H-isoxazole-5-carbonyl]amino]tetrahydrofuran-3-carboxylate], the pest or weed control at 320 g/ha in the assay on Echinochloa crus-galli is 90%; in assay [1] it was 80 to 100%; in the assay with Veronica persica, 90%. In addition, the pest or weed control at 80 g/ha in the assay on Setaria viridis was 100%; in the assay with Avena fatua, 90%.

With `COC(=O)[C@H]1C[C@@H](NC(=O)C2(OC)CC(c3cc(F)cc(F)c3)=NO2)CO1` (relative stereo) [I-05, methyl cis-4-[[3-(3,5-difluorophenyl)-5-methoxy-4H-isoxazole-5-carbonyl]amino]tetrahydrofuran-2-carboxylate], the pest or weed control at 320 g/ha was 90% in the assay on Polygonum convolvulus, 90% in the assay on Echinochloa crus-galli, 80 to 100% in assay [1] and 80% with Veronica persica. For the same compound, the pest or weed control at 80 g/ha in the assay on Setaria viridis worked out at 90%.

For `CC(C)(C)OC(=O)[C@H]1C[C@@H](NC(=O)C2(C)CC(c3cccc(F)c3)=NO2)CO1` (mixture of isomers) [I-33, tert-butyl cis-4-[[(5RS)-3-(3-fluorophenyl)-5-methyl-4H-isoxazole-5-carbonyl]amino]tetrahydrofuran-2-carboxylate], the pest or weed control at 320 g/ha is 80% in the assay on Polygonum convolvulus, 80% in the assay with Echinochloa crus-galli, 80 to 100% in assay [1] and 80% with Veronica persica. This compound also displayed a pest or weed control at 80 g/ha in the assay with Setaria viridis of 100%.

As to `CC1(C(=O)N[C@H]2CO[C@@H](C(=O)OCc3ccccc3)C2)CC(c2cccc(F)c2)=NO1` (mixture of isomers) [I-34, benzyl cis-4-[[(5RS)-3-(3-fluorophenyl)-5-methyl-4H-isoxazole-5-carbonyl]amino]tetrahydrofuran-2-carboxylate], the pest or weed control at 320 g/ha with Echinochloa crus-galli was 90%; in assay [1] it was 80 to 100%; with Veronica persica, 80%. Besides, the pest or weed control at 80 g/ha in the assay on Setaria viridis turned out to be 90%; in the assay with Avena fatua, 80%.

Consider `CC(C)OC(=O)[C@H]1C[C@@H](NC(=O)C2(C)CC(c3cccc(F)c3)=NO2)CO1` (mixture of isomers) [I-32, isopropyl cis-4-[[(5RS)-3-(3-fluorophenyl)-5-methyl-4H-isoxazole-5-carbonyl]amino]tetrahydrofuran-2-carboxylate], for which the pest or weed control at 320 g/ha in the assay on Polygonum convolvulus is 80%; in the assay with Echinochloa crus-galli, 90%; in assay [1], 80 to 100%; in the assay on Veronica persica, 80%. In addition, in the assay with Setaria viridis, the pest or weed control at 80 g/ha worked out at 100%.

As to `CC(C)OC(=O)C1CC(NC(=O)C2(C)CC(c3cc(F)cc(F)c3)=NO2)CO1` (stereo not shown) [I-44], in the assay on Polygonum convolvulus, the “Post-emergence herbicidal activity against POLCO in %” value came out at 80%. Moreover, the “Post-emergence herbicidal activity against ECHCG in %” value with Echinochloa crus-galli is on record as 100%. Also, in the assay on Setaria viridis, the “Pre-emergence herbicidal activity against SETVI in %” value came out at 100%. Moreover, in the assay with Avena fatua, the “Pre-emergence herbicidal activity against AVEVA in % (AVEFA)” value is on record as 90%. Besides, the “Post-emergence herbicidal activity against VERPE in %” value in the assay with Veronica persica is 80%.

For the compound `C=C[C@]1(C(=O)N[C@H]2CO[C@@H](C(=O)OC)C2)CC(c2cc(F)cc(F)c2)=NO1` (single isomer, unassigned) [I-11], the pest or weed control at 320 g/ha with Polygonum convolvulus and with Echinochloa crus-galli was 90% in each case. Also, the “Pre-emergence herbicidal activity against SETVI in %” value with Setaria viridis was found to be 100%. The “Pre-emergence herbicidal activity against AVEVA in % (AVEFA)” value in the assay with Avena fatua was found to be 100%.

Consider `CCOC(=O)C1CC(NC(=O)C2(C)CC(c3cc(F)cc(F)c3)=NO2)CO1` (mixture of isomers) [I-43], for which, in the assay with Polygonum convolvulus, the “Post-emergence herbicidal activity against POLCO in %” value is given as 80%. The “Post-emergence herbicidal activity against ECHCG in %” value with Echinochloa crus-galli is given as 100%. Further, the “Pre-emergence herbicidal activity against SETVI in %” value in the assay with Setaria viridis stood at 100%. The “Pre-emergence herbicidal activity against AVEVA in % (AVEFA)” value in the assay with Avena fatua worked out at 100%. For the same compound, in the assay on Veronica persica, the “Post-emergence herbicidal activity against VERPE in %” value is 90%.

Consider `C=C[C@]1(C(=O)N[C@H]2CO[C@@H](C(=O)OCc3ccccc3)C2)CC(c2cc(F)cc(F)c2)=NO1` (mixture of isomers) [I-37, benzyl cis-4-[[(5S)-3-(3,5-difluorophenyl)-5-vinyl-4H-isoxazole-5-carbonyl]amino]tetrahydrofuran-2-carboxylate], for which the values for the pest or weed control at 320 g/ha (in the assay with Echinochloa crus-galli; in assay [1]; in the assay on Veronica persica) were 90%, 80 to 100% and 80%, respectively. For the same compound, the pest or weed control at 80 g/ha with Setaria viridis and in the assay on Avena fatua was 100% in each case.

As for `CC1(C(=O)NC2COC(C(=O)OCc3ccccc3)C2)CC(c2cc(F)cc(F)c2)=NO1` (mixture of isomers) [I-45], in the assay with Polygonum convolvulus, the “Post-emergence herbicidal activity against POLCO in %” value was determined as 80%. The “Post-emergence herbicidal activity against ECHCG in %” value in the assay on Echinochloa crus-galli is recorded as 100%. Moreover, the “Pre-emergence herbicidal activity against SETVI in %” value in the assay with Setaria viridis is listed as 100%. Also, in the assay with Avena fatua, the “Pre-emergence herbicidal activity against AVEVA in % (AVEFA)” value is 100%. In the assay on Veronica persica, the “Post-emergence herbicidal activity against VERPE in %” value is recorded as 80%.

`COC(=O)C1CC(NC(=O)C2(C(C)(F)F)CC(c3cc(F)cc(F)c3)=NO2)CO1` (stereo not shown) [I-49]: in the assay on Polygonum convolvulus, the “Post-emergence herbicidal activity against POLCO in %” value amounted to 80%. Further, in the assay on Echinochloa crus-galli, the “Post-emergence herbicidal activity against ECHCG in %” value is given as 80%. Moreover, in the assay on Setaria viridis, the “Pre-emergence herbicidal activity against SETVI in %” value was 100%. Further, the “Pre-emergence herbicidal activity against AVEVA in % (AVEFA)” value in the assay with Avena fatua is 100%. In the assay on Veronica persica, the “Post-emergence herbicidal activity against VERPE in %” value stood at 80%.

On to `COC(=O)C1CC(NC(=O)C2(C)CC(c3cc(F)cc(F)c3)=NO2)CO1` (mixture of isomers) [I-48], for which the “Post-emergence herbicidal activity against POLCO in %” value in the assay on Polygonum convolvulus was 80%. The “Post-emergence herbicidal activity against ECHCG in %” value with Echinochloa crus-galli was 90%. Besides, the “Pre-emergence herbicidal activity against SETVI in %” value in the assay on Setaria viridis is listed as 100%. Moreover, the “Pre-emergence herbicidal activity against AVEVA in % (AVEFA)” value with Avena fatua amounted to 100%. Moreover, in the assay with Veronica persica, the “Post-emergence herbicidal activity against VERPE in %” value is reported as 80%.

Take `CC(C)(C)OC(=O)C1CC(NC(=O)C2(C)CC(c3cc(F)cc(F)c3)=NO2)CO1` (mixture of isomers) [I-42]: the “Post-emergence herbicidal activity against POLCO in %” value in the assay on Polygonum convolvulus is given as 80%. For the same compound, the “Post-emergence herbicidal activity against ECHCG in %” value in the assay on Echinochloa crus-galli was 100%. The “Pre-emergence herbicidal activity against SETVI in %” value with Setaria viridis came out at 100%. In addition, the “Pre-emergence herbicidal activity against AVEVA in % (AVEFA)” value with Avena fatua is reported as 90%. For the same compound, the “Post-emergence herbicidal activity against VERPE in %” value in the assay on Veronica persica is given as 80%.

Consider `C=C[C@]1(C(=O)N[C@H]2CO[C@@H](C(=O)OCC)C2)CC(c2cc(F)cc(F)c2)=NO1` (mixture of isomers) [I-35, ethyl cis-4-[[(5S)-3-(3,5-difluorophenyl)-5-vinyl-4H-isoxazole-5-carbonyl]amino]tetrahydrofuran-2-carboxylate], for which the pest or weed control at 320 g/ha in the assay on Echinochloa crus-galli was 100%; in assay [1], 80 to 100%; in the assay on Veronica persica, 80%. Also, the pest or weed control at 80 g/ha in the assay with Setaria viridis and in the assay on Avena fatua was 100% in each case.

For `CC1(C(=O)NC2COC(C(=O)O)C2)CC(c2cc(F)cc(F)c2)=NO1` (mixture of isomers) [I-41], in the assay on Polygonum convolvulus, the “Post-emergence herbicidal activity against POLCO in %” value came out at 90%. Further, the “Post-emergence herbicidal activity against ECHCG in %” value with Echinochloa crus-galli turned out to be 100%. Also, in the assay with Setaria viridis, the “Pre-emergence herbicidal activity against SETVI in %” value came to 100%. The “Pre-emergence herbicidal activity against AVEVA in % (AVEFA)” value in the assay on Avena fatua is on record as 100%. Besides, the “Post-emergence herbicidal activity against VERPE in %” value in the assay with Veronica persica was 80%.
